Measured values published in patent US20250171462A1 (NICO Therapeutics, Inc., priority 2022, published 2025).
Read-outs that look alike come from different tables or passages of the source.

Target: T1, full-length SARM1 (FL-SARM1) (Homo sapiens, UniProt Q6SZW1)
T1 sequence (Q6SZW1 28-724): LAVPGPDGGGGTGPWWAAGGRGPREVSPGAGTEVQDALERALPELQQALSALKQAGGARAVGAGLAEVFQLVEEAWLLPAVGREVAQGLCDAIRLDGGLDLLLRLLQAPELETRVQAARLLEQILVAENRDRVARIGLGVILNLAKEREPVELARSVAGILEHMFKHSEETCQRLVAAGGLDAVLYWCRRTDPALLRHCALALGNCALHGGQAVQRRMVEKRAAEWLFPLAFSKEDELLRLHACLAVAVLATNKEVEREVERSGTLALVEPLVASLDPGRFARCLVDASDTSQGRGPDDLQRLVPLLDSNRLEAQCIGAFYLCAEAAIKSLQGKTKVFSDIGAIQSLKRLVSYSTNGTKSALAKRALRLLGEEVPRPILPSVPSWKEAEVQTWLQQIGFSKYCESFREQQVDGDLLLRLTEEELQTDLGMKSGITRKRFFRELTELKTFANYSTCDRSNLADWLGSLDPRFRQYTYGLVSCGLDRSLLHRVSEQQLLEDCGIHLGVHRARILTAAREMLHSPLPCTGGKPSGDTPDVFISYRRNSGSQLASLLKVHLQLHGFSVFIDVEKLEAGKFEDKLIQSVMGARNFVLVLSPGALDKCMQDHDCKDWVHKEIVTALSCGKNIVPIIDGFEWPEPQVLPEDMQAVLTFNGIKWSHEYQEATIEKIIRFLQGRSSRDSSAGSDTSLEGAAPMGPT
Test: FL-SARM1 cellular lysate assay (NAD/NADH-Glo detection of remaining NAD+, NMN-activated)

[1] = Activity (IC50 class), 11 point curve
[2] = Activity (μM) (IC50), 11 point curve
[3] = read-out: Activity (IC50 class), 11 point curve

Compound	IC50 [1] [µM]	IC50 [2] [µM]	IC50 [3] [µM]
Cc1cc(C(F)(F)F)c(NC(=O)N2[C@@H]3C[C@@H](C)C[C@H]2C3)cc1-c1cccnn1 [Example 244, cis-3-methyl-N-[4-methyl-5-pyridazin-3-yl-2-(trifluoromethyl)phenyl]-6-azabicyclo[3.1.1]heptane-6-carboxamide]	> 10	16	
C[C@@H]1C[C@@H]2C[C@H](C1)N2C(=O)Nc1cc(-c2cccnn2)c(C(F)(F)F)cc1F [Example 245, cis-N-[2-fluoro-5-pyridazin-3-yl-4-(trifluoromethyl)phenyl]-3-methyl-6-azabicyclo[3.1.1]heptane-6-carboxamide]		0.2	0.0001 to 1
Cc1cc(F)c(NC(=O)N2C3CCCC2C3)cc1-c1nccnn1 [Example 246, N-[2-fluoro-4-methyl-5-(1,2,4-triazin-3-yl)phenyl]-6-azabicyclo[3.1.1]heptane-6-carboxamide]	1 to 10	2	
Cc1cc(F)c(NC(=O)N2C3CCCC2C3)cc1-c1cc(Cl)cnn1 [Example 247, N-[5-(5-chloropyridazin-3-yl)-2-fluoro-4-methylphenyl]-6-azabicyclo[3.1.1]heptane-6-carboxamide]		0.4	0.0001 to 1
Cc1ccc(NC(=O)N2C3CCCC2C3)cc1-c1ncc(F)cc1F [Example 248, N-[3-(3,5-difluoropyridin-2-yl)-4-methylphenyl]-6-azabicyclo[3.1.1]heptane-6-carboxamide]		0.2	0.0001 to 1
COc1cnnc(-c2cc(NC(=O)N3C4CCCC3C4)c(F)cc2C)c1 [Example 249, N-[2-fluoro-5-(5-methoxypyridazin-3-yl)-4-methylphenyl]-6-azabicyclo[3.1.1]heptane-6-carboxamide]		0.9	0.0001 to 1
Cc1c(-c2ncc(F)cn2)cc(NC(=O)N2C3CCCC2C3)c(F)c1F [Example 250, N-[2,3-difluoro-5-(5-fluoropyrimidin-2-yl)-4-methylphenyl]-6-azabicyclo[3.1.1]heptane-6-carboxamide]	1 to 10	1.5	
Cc1ccc(NC(=O)N2C3CCCC2C3)cc1-c1ncc(F)c(C#N)n1 [Example 251, N-[3-(4-cyano-5-fluoropyrimidin-2-yl)-4-methylphenyl]-6-azabicyclo[3.1.1]heptane-6-carboxamide]	1 to 10	1	
Cc1ccc(NC(=O)N2C3CCCC2C3)cc1-c1ncc(Cl)cn1 [Example 252, N-[3-(5-chloropyrimidin-2-yl)-4-methylphenyl]-6-azabicyclo[3.1.1]heptane-6-carboxamide]		0.5	0.0001 to 1
Cc1cc(F)c(NC(=O)N2[C@@H]3C[C@@H](C)C[C@H]2C3)cc1-c1ncccn1 [Example 253, cis-N-(2-fluoro-4-methyl-5-pyrimidin-2-ylphenyl)-3-methyl-6-azabicyclo[3.1.1]heptane-6-carboxamide]		0.08	0.0001 to 1
Cc1cc(F)c(NC(=O)N2C3C[C@@H](C)C[C@H]2C3)cc1-c1ncc(F)cn1 [Example 254, cis-N-[2-fluoro-5-(5-fluoropyrimidin-2-yl)-4-methylphenyl]-3-methyl-6-azabicyclo[3.1.1]heptane-6-carboxamide]		0.02	0.0001 to 1
Cc1cc(F)c(NC(=O)N2[C@@H]3C[C@@H](C)C[C@H]2C3)cc1-c1ccccn1 [Example 255, cis-N-(2-fluoro-4-methyl-5-pyridin-2-ylphenyl)-3-methyl-6-azabicyclo[3.1.1]heptane-6-carboxamide]		0.02	0.0001 to 1
Cc1cc(F)c(NC(=O)N2[C@@H]3C[C@@H](C)C[C@H]2C3)cc1-c1cccnn1 [Example 256, cis-N-(2-fluoro-4-methyl-5-pyridazin-3-ylphenyl)-3-methyl-6-azabicyclo[3.1.1]heptane-6-carboxamide]		0.1	0.0001 to 1
Cc1ccc(NC(=O)[C@H]2C[C@H]3C[C@H]3N2Cc2ncccn2)cc1-c1ncc(F)cn1 [Example 261]	> 10	34	
Cc1ccc(NC(=O)[C@H]2C[C@H]3C[C@H]3N2c2nccnn2)cc1-c1ncc(F)cn1 [Example 262, (1R,3R,5R)-N-(3-(5-fluoropyrimidin-2-yl)-4-methylphenyl)-2-(1,2,4-triazin-3-yl)-2-azabicyclo[3.1.0]hexane-3-carboxamide]	1 to 10	2.5	
Cc1ccc(NC(=O)[C@H]2C[C@H]3C[C@H]3N2c2ncc(Cl)nn2)cc1-c1ncc(F)cn1 [Example 263, (1R,3R,5R)-2-(6-chloro-1,2,4-triazin-3-yl)-N-[3-(5-fluoropyrimidin-2-yl)-4-methylphenyl]-2-azabicyclo[3.1.0]hexane-3-carboxamide]	1 to 10	1.8	
Cc1ccc(NC(=O)[C@H]2C[C@H]3C[C@H]3N2c2cnccn2)cc1-c1ncc(F)cn1 [Example 264, (1R,3R,5R)-N-[3-(5-fluoropyrimidin-2-yl)-4-methylphenyl]-2-pyrazin-2-yl-2-azabicyclo[3.1.0]hexane-3-carboxamide]	1 to 10	1.1	
Cc1ccc(NC(=O)[C@H]2C[C@H]3C[C@H]3N2c2ccncn2)cc1-c1ncc(F)cn1 [Example 265, (1R,3R,5R)-N-[3-(5-fluoropyrimidin-2-yl)-4-methylphenyl]-2-pyrimidin-4-yl-2-azabicyclo[3.1.0]hexane-3-carboxamide]	1 to 10	1.9	
Cc1ccc(NC(=O)[C@H]2C[C@H]3C[C@H]3N2c2ncccn2)cc1-c1ncccn1 [Example 266, (1R,3R,5R)-N-(4-methyl-3-pyrimidin-2-ylphenyl)-2-pyrimidin-2-yl-2-azabicyclo[3.1.0]hexane-3-carboxamide]	1 to 10	4.2	
Cc1ccc(NC(=O)[C@H]2C[C@H]3C[C@H]3N2c2ncccn2)cc1-c1ncc(F)cn1 [Example 267, (1R,3R,5R)-N-[3-(5-fluoropyrimidin-2-yl)-4-methylphenyl]-2-pyrimidin-2-yl-2-azabicyclo[3.1.0]hexane-3-carboxamide]	1 to 10	3.1	
Cc1ccc(NC(=O)[C@@H]2C[C@@H]3C[C@@H]3N2c2ncccn2)cc1-c1ncc(F)cn1 [Example 268, (1S,3S,5S)-N-[3-(5-fluoropyrimidin-2-yl)-4-methylphenyl]-2-pyrimidin-2-yl-2-azabicyclo[3.1.0]hexane-3-carboxamide]	> 10	33	
Cc1ccc(NC(=O)[C@H]2C[C@@H]3C[C@@H]3N2c2ncccn2)cc1-c1ncc(F)cn1 [Example 269, (1S,3R,5S)-N-[3-(5-fluoropyrimidin-2-yl)-4-methylphenyl]-2-pyrimidin-2-yl-2-azabicyclo[3.1.0]hexane-3-carboxamide]	> 10	47	
Cc1ccc(NC(=O)[C@H]2[C@H](C)OCCN2c2ccccn2)cc1-c1ncc(F)cn1 [Example 270, (2S,3R)-N-(3-(5-fluoropyrimidin-2-yl)-4-methylphenyl)-2-methyl-4-(pyridin-2-yl)morpholine-3-carboxamide]	1 to 10	9.5	
Cc1ccc(NC(=O)C2C3CC(C3)N2c2ccccn2)cc1-c1ncc(F)cn1 (stereo not drawn) [Example 271, N-(3-(5-fluoropyrimidin-2-yl)-4-methylphenyl)-2-(pyridin-2-yl)-2-azabicyclo[2.1.1]hexane-3-carboxamide]	> 10	17	
